From ChEMBL document CHEMBL1201862, “PubChem BioAssay data set” (2004)
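Cultured in 96-well plates, cells were exposed to test compound for 48 hours across five concentrations. Abbreviation: GI50, concentration required for 50% inhibition of growth.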 Activity calls are given as the source filed them. No stated cut-off is given here; in the data, active = GI50 up to about 1.1 µM and inactive = higher.

What was measured:
Test in all cases: DTP human tumour cell line panel, 48 h
786-0 = tested on: 786-0
A498 = tested on: A498
A549 = tested on: A549
ACHN = tested on: ACHN
BT-549 = tested on: BT-549
CAKI-1 = tested on: CAKI-1
CCRF-CEM = tested on: CCRF-CEM
COLO 205 = tested on: COLO 205
DU-145 = tested on: DU-145
EKVX = tested on: EKVX
HCC 2998 = tested on: HCC 2998
HCT-116 = tested on: HCT-116
HCT-15 = tested on: HCT-15
HL-60 = tested on: HL-60
HOP-62 = tested on: HOP-62
HOP-92 = tested on: HOP-92
HT-29 = tested on: HT-29
Hs-578T = tested on: Hs-578T
IGROV-1 = tested on: IGROV-1
K562 = tested on: K562
KM12 = tested on: KM12
LOX IMVI = tested on: LOX IMVI
M14 = tested on: M14
MCF7 = tested on: MCF7
MDA-MB-231 = tested on: MDA-MB-231
MDA-MB-435 = tested on: MDA-MB-435
MDA-N = tested on: MDA-N
MOLT-4 = tested on: MOLT-4
Malme-3M = tested on: Malme-3M
NCI-H226 = tested on: NCI-H226
NCI-H23 = tested on: NCI-H23
NCI-H460 = tested on: NCI-H460
NCI-H522 = tested on: NCI-H522
NCI/ADR-RES = tested on: NCI/ADR-RES
OVCAR-3 = tested on: OVCAR-3
OVCAR-4 = tested on: OVCAR-4
OVCAR-5 = tested on: OVCAR-5
OVCAR-8 = tested on: OVCAR-8
PC-3 = tested on: PC-3
RPMI-8226 = tested on: RPMI-8226
RXF 393 = tested on: RXF 393
SF-268 = tested on: SF-268
SF-295 = tested on: SF-295
SF-539 = tested on: SF-539
SK-MEL-28 = tested on: SK-MEL-28
SK-MEL-2 = tested on: SK-MEL-2
SK-MEL-5 = tested on: SK-MEL-5
SK-OV-3 = tested on: SK-OV-3
SN12C = tested on: SN12C
SNB-19 = tested on: SNB-19
SNB-75 = tested on: SNB-75
SR = tested on: SR
SW-620 = tested on: SW-620
T47D = tested on: T47D
TK-10 = tested on: TK-10
U-251 = tested on: U-251
UACC-257 = tested on: UACC-257
UACC-62 = tested on: UACC-62
UO-31 = tested on: UO-31

## CCOS(=O)(=O)c1ccc(-c2c3nc(c(-c4ccc(S(=O)(=O)OCC)cc4)c4ccc([nH]4)c(-c4ccc(S(=O)(=O)OCC)cc4)c4nc(c(-c5ccc(S(=O)(=O)OCC)cc5)c5ccc2[nH]5)C=C4)C=C3)cc1
786-0
  GI50: > 31.6 µM (inactive)
A498
  GI50: > 31.6 µM (inactive)
A549
  GI50: > 31.6 µM (inactive)
ACHN
  GI50: > 31.6 µM (inactive)
BT-549
  GI50: > 31.6 µM (inactive)
CAKI-1
  GI50: > 31.6 µM (inactive)
CCRF-CEM
  GI50: > 31.6 µM (inactive)
COLO 205
  GI50: > 31.6 µM (inactive)
DU-145
  GI50: > 31.6 µM (inactive)
EKVX
  GI50: > 31.6 µM (inactive)
HCC 2998
  GI50: > 31.6 µM (inactive)
HCT-116
  GI50: > 31.6 µM (inactive)
HCT-15
  GI50: > 31.6 µM
HL-60
  GI50: > 31.6 µM (inactive)
HOP-62
  GI50: > 10 µM (inactive)
HOP-92
  GI50: > 100 µM (inactive)
HT-29
  GI50: > 100 µM (inactive)
Hs-578T
  GI50: > 31.6 µM (inactive)
IGROV-1
  GI50: > 100 µM (inactive)
K562
  GI50: > 10 µM (inactive)
KM12
  GI50: > 31.6 µM (inactive)
LOX IMVI
  GI50: > 10 µM (inactive)
M14
  GI50: > 31.6 µM (inactive)
MCF7
  GI50: > 31.6 µM (inactive)
MDA-MB-231
  GI50: > 31.6 µM (inactive)
MDA-MB-435
  GI50: > 31.6 µM (inactive)
MDA-N
  GI50: > 31.6 µM (inactive)
MOLT-4
  GI50: > 31.6 µM (inactive)
Malme-3M
  GI50: 17.7 µM (inactive)
NCI-H226
  GI50: 18.3 µM (inactive)
NCI-H23
  GI50: > 31.6 µM (inactive)
NCI-H460
  GI50: > 31.6 µM (inactive)
NCI-H522
  GI50: 10.5 µM (inactive)
NCI/ADR-RES
  GI50: > 31.6 µM (inactive)
OVCAR-3
  GI50: > 10 µM (inactive)
OVCAR-4
  GI50: > 31.6 µM (inactive)
OVCAR-5
  GI50: > 31.6 µM (inactive)
OVCAR-8
  GI50: > 31.6 µM (inactive)
PC-3
  GI50: > 31.6 µM (inactive)
RPMI-8226
  GI50: > 31.6 µM (inactive)
RXF 393
  GI50: 17.2 µM (inactive)
SF-268
  GI50: > 31.6 µM (inactive)
SF-295
  GI50: > 31.6 µM (inactive)
SF-539
  GI50: 8.13 µM (inactive)
SK-MEL-28
  GI50: > 10 µM (inactive)
SK-MEL-2
  GI50: > 31.6 µM (inactive)
SK-MEL-5
  GI50: > 31.6 µM (inactive)
SK-OV-3
  GI50: > 31.6 µM (inactive)
SN12C
  GI50: > 31.6 µM (inactive)
SNB-19
  GI50: > 31.6 µM (inactive)
SNB-75
  GI50: > 10 µM (inactive)
SR
  GI50: > 31.6 µM (inactive)
SW-620
  GI50: > 31.6 µM (inactive)
T47D
  GI50: > 31.6 µM (inactive)
TK-10
  GI50: > 31.6 µM (inactive)
U-251
  GI50: > 31.6 µM (inactive)
UACC-257
  GI50: > 31.6 µM (inactive)
UACC-62
  GI50: > 31.6 µM (inactive)
UO-31
  GI50: 24.8 µM (inactive)
